Results from US11319286B2, “Heterocyclic compound and application thereof” (Takeda Pharmaceutical Company Limited, priority 2017, dated 2022).

Biological target: T1, human orexin type 2 receptor (hOX2R) (Homo sapiens, UniProt O43614)
T1 construct: expressed in transfected cells
T1 sequence (O43614 1-444): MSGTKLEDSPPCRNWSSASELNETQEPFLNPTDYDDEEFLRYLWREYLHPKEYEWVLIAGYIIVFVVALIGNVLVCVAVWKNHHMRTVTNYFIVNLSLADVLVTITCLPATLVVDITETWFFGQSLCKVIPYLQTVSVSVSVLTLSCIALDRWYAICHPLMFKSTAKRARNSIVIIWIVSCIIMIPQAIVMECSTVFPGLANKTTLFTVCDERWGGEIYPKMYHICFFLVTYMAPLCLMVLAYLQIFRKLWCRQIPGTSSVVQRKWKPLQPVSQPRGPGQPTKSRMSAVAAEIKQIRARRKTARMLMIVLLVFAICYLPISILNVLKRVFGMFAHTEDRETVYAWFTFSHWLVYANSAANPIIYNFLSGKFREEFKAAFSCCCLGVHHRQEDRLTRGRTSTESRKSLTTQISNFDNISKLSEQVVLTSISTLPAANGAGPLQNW
Test: Measurement of orexin type 2 receptor agonist activity (calcium fluorescence, Fluo-4 AM, FDSS)
Format: cell-based
Details: CHO cells forcibly expressing human OX2 receptor; 100% = orexin A (human) 10 nM, 0% = DMSO
Excerpt: To obtain a cell clone stably expressing human orexin type 2 receptor, human orexin type 2 receptor cDNA was inserted into pcDNA3.1(+) plasmid vector (Invitrogen), and a plasmid DNA for expression of human orexin type 2 receptor (pcDNA3.1(+)/hOX2R) was cloned. The plasmid DNA was introduced into CHO-dhfr cell by an electroporation method, and human orexin type 2 receptor expressing clone cells were obtained by limiting dilution method by using G418 drug resistance as a selection marker.
CHO cells forcibly expressing human OX2 receptor were seeded in each well of 384 well black transparent bottom plate (BD Falcon) at 7,500 cells/well, and cultured for one day in a 5% CO2 incubator at 37° C. After removal of the medium in the cell plate, assay buffer A containing a calcium indicator (HBSS (Thermo Fisher Scientific), 20 mM HEPES (Thermo Fisher Scientific), 0.1% BSA (Wako Pure Chemical Industries, Ltd. or Sigma-Aldrich), 2.5 μg/mL Fluo-4 AM (DOJINDO Chemical), 0.08% Pluronic F127 (DOJINDO Chemical), 1.25 mM probenecid (DOJINDO Chemical)) was added at 30 μL/well. The plate was stood for 30 min in a 5% CO2 incubator at 37° C., and further stood at room temperature for 30 min. A test compound prepared by diluting with assay buffer B (HBSS, 20 mM HEPES, 0.1% BSA) was added at 10 μL/well, and the fluorescence value was measured by FDSSμCELL (Hamamatsu Photonics K.K.) every one sec for 1 min, and thereafter every two sec for 1 min 40 sec. The activity (%) of the test compound was calculated assuming that variation in the fluorescence value when DMSO was added instead of the test compound was 0%, and variation in the fluorescence value when orexin A (human) (PEPTIDE INSTITUTE, INC.) was added at the final concentration of 10 nM was 100%. Unless otherwise specified, the maximum agonist activity of each compound was 90% or more, when the maximum agonist activity of orexin A was considered as 100%.

Point of comparison: CN(C)C(=O)N1CC[C@H](NS(C)(=O)=O)[C@@H]1COC1CCN(c2ncc(F)cn2)CC1 (relative stereo) [Example 11, cis-2-(((1-(5-fluoropyrimidin-2-yl)piperidin-4-yl)oxy)methyl)-3-((methanesulfonyl)amino)-N,N-dimethylpyrrolidine-1-carboxamide], EC50 82 nM. Against it:
- COC(=O)N1CC[C@H](NS(C)(=O)=O)[C@@H]1CO[C@H]1CC[C@@H](c2ccccc2)CC1 (relative stereo) [Example 1, methyl cis-3-((methylsulfonyl)amino)-2-(((cis-4-phenylcyclohexyl)oxy)methyl)pyrrolidine-1-carboxylate] — 1.6-fold higher, 130 nM
- CS(=O)(=O)N[C@H]1CCN[C@H]1CO[C@H]1CC[C@@H](c2ccccc2)CC1 (relative stereo) [Example 2, N-(cis-2-(((cis-4-phenylcyclohexyl)oxy)methyl)pyrrolidin-3-yl)methanesulfonamide] — 44-fold higher, 3600 nM
- CCOC(=O)N1CC[C@H](NS(C)(=O)=O)[C@@H]1CO[C@H]1CC[C@@H](c2ccccc2)CC1 (relative stereo) [Example 3, ethyl cis-3-((methylsulfonyl)amino)-2-(((cis-4-phenylcyclohexyl)oxy)methyl) pyrrolidine-1-carboxylate] — 2.9-fold higher, 240 nM
- CS(=O)(=O)N[C@H]1CCN(C(=O)C2CC2)[C@H]1CO[C@H]1CC[C@@H](c2ccccc2)CC1 (relative stereo) [Example 4, N-(cis-1-(cyclopropylcarbonyl)-2-(((cis-4-phenylcyclohexyl)oxy)methyl)pyrrolidin-3-yl)methanesulfonamide] — 1.7-fold lower, 47 nM
- CS(=O)(=O)N[C@H]1CCN(C(=O)CC(F)(F)F)[C@H]1CO[C@H]1CC[C@@H](c2ccccc2)CC1 (relative stereo) [Example 5, N-(cis-2-(((cis-4-phenylcyclohexyl)oxy)methyl)-1-(3,3,3-trifluoropropanoyl)pyrrolidin-3-yl)methanesulfonamide] — 9.3-fold higher, 760 nM
- CS(=O)(=O)N[C@H]1CCN(C(=O)N2CCC2)[C@H]1CO[C@H]1CC[C@@H](c2ccccc2)CC1 (relative stereo) [Example 6, N-(cis-1-(azetidin-1-ylcarbonyl)-2-(((cis-4-phenylcyclohexyl)oxy)methyl)pyrrolidin-3-yl)methanesulfonamide] — 4.8-fold lower, 17 nM
- CS(=O)(=O)N[C@H]1CCN(C(=O)C2CCC2)[C@H]1CO[C@H]1CC[C@@H](c2ccccc2)CC1 (relative stereo) [Example 7, N-(cis-1-(cyclobutylcarbonyl)-2-(((cis-4-phenylcyclohexyl)oxy)methyl)pyrrolidin-3-yl)methanesulfonamide] — 2-fold lower, 40 nM
- CN(C)C(=O)N1CC[C@H](NS(C)(=O)=O)[C@@H]1CO[C@H]1CC[C@@H](c2ccccc2)CC1 (relative stereo) [Example 8, cis-N,N-dimethyl-3-((methylsulfonyl)amino)-2-(((cis-4-phenylcyclohexyl)oxy)methyl)pyrrolidine-1-carboxamide] — 6.3-fold lower, 13 nM
- CN(C)C(=O)N1CC[C@H](NS(C)(=O)=O)[C@@H]1CO[C@H]1CC[C@@H](c2ccccc2C(F)(F)F)CC1 (relative stereo) [Example 9, cis-3-((methanesulfonyl)amino)-N,N-dimethyl-2-(((cis-4-(2-(trifluoromethyl)phenyl)cyclohexyl)oxy)methyl)pyrrolidine-1-carboxamide] — 3.3-fold higher, 270 nM
- CC(C)(O)C(=O)N1CC[C@H](NS(C)(=O)=O)[C@@H]1CO[C@H]1CC[C@@H](c2ccccc2)CC1 (relative stereo) [Example 10, N-(cis-1-(2-hydroxy-2-methylpropanoyl)-2-(((cis-4-phenylcyclohexyl)oxy)methyl)pyrrolidin-3-yl)methanesulfonamide] — 5-fold higher, 410 nM
